Values quoted from earlier work as cited in patent US20190008906A1, “COMPOSITIONS FOR MANAGEMENT OF WOUNDS, SKIN DISEASES, DEHYDRATION, CHRONIC DISEASES, AND RESPIRATORY DISEASES” (priority 2017, published 2019).

Details: laboratory animals, mainly when given orally

Q: For `CC1=CC(=O)C(C(C)C)=CC1=O` [thymoquinone], which “safety in toxicity studies” value is on record?
A: The value was “quite safe”.
